Experimental data as given in patent US12378277B2, “SGLTS/DPP4 inhibitor and application thereof” (DONGBAO PURPLE STAR (HANGZHOU) BIOPHARMACEUTICAL CO., LTD., priority 2019, dated 2025).
Marks after values point to notes of the source that are not given here.

Experiments:
SD rat = test: Rat oral glucose tolerance test (OGTT) in vivo; conditions: 10 mg/kg single gavage
Procedure: 1. Animal: [table] 2. Experiment Grouping: [table] Experiment Process: 1. Animal Adaptation and Preparation: The experimental animals needed to be acclimatized in the animal room for 1 week after arriving at the facility. 2. Fasting and Administration The animals were fasted for 18 h in the metabolic cage, and drugs or solvents (2 mL/kg) were given according to the above table, and then 50% glucose solution (2 g/kg, 4 mL/kg) was administrated immediately. 3. Urine and Blood Sugar Test Two hours after the animals were given sugar, they resumed eating. The time points of 0 min, 15 min, 30 min, 45 min, 60 min and 120 min were collected for blood glucose determination; urine during 0-24 h was used for urine sugar (mg/200 g) and urine volume test respectively. 4. Data Analysis: All values will be expressed as average values. Statistical analysis was evaluated using Graphpad Prism 6 one-way analysis of variance Tukey's multiple comparison test. P value of less than 0.05 was considered of statistically significant.

Human-SGLT1 = Human-SGLT1 (Homo sapiens (Human), UniProt P13866); test: SGLT1 glucose transport test; assay type: cell-based; conditions: cells stably expressing Human-SGLT1; [14C]-labeled methyl α-D-glucopyranoside uptake, 37° C., 2 hours
Human-SGLT1, sequence (P13866 whole entry): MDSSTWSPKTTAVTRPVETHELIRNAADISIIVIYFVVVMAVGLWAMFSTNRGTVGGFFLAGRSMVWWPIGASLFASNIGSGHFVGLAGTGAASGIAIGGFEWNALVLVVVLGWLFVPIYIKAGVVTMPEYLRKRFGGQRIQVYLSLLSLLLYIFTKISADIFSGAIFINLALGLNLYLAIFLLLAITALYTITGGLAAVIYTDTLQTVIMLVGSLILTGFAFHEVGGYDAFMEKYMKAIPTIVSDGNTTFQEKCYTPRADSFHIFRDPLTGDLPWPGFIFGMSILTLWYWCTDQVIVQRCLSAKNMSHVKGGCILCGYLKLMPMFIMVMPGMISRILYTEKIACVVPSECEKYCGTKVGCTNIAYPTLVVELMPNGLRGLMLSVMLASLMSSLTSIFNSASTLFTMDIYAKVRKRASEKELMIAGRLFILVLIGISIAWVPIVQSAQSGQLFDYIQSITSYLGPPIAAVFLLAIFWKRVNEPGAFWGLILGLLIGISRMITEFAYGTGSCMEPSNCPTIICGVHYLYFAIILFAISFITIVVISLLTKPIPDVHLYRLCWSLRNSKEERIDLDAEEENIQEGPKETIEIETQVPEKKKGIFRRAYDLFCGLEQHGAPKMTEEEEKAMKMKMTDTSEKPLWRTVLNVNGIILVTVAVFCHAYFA
Procedure: • Biological activity experiment 1: SGLT1 glucose transport test 1. Experimental Purpose:
The effect of the compound on the glucose transport activity of the SGLT1 transporter was detected through measuring the amount of [^14C]-labeled glucose entering the cells with high expression of Human-SGLT1.
The cells stably expressing Human-SGLT1 used in the experiment were constructed by Shanghai WuXi AppTec. The SGLT1 cells were plated on a Cytostar-T (PerkinElmer) 96-well cell culture plate, and cultured overnight at 5% CO2 at 37° C.
2.2. SGLT1 Glucose Transport Test
1) Experimental buffer: 10 mM 4-hydroxyethylpiperazine ethanesulfonic acid (HEPES), 1.2 mM magnesium chloride (MgCl2), 4.7 mM potassium chloride (KCl), 2.2 mM calcium chloride (CaCl2) and 120 mM sodium chloride (NaCl).
2) The compound was diluted with 100% dimethyl sulfoxide (DMSO) with 1 mM as the starting concentration and 8 points of 5-fold serial dilutions.
3) 3 μM [^14C]-labeled methyl α-D-glucopyranoside was prepared with experimental buffer.
4) The cells were treated with 49 μL of experimental buffer, 1 μL of the compound which was gradient diluted, and 50 μL of 3 μM [^14C] isotope-labeled sugar solution at 37° C. for 2 hours.
5) The isotope detector (Micro beta Reader) was used to read.
6) The data was calculated by GraphPad Prism 5.0 software: log(inhibitor) vs. response—Variable slope to obtain the IC50 value of the test compound. The experimental results were shown in Table 3. • Biological activity experiment 2: SGLT2 glucose transport test 1.

Human-SGLT2 = Human-SGLT2 (Homo sapiens (Human), UniProt P31639); test: SGLT2 glucose transport test; assay type: cell-based; conditions: cells stably expressing Human-SGLT2; [14C]-labeled methyl α-D-glucopyranoside uptake, 37° C., 2 hours
Human-SGLT2, sequence (P31639 whole entry): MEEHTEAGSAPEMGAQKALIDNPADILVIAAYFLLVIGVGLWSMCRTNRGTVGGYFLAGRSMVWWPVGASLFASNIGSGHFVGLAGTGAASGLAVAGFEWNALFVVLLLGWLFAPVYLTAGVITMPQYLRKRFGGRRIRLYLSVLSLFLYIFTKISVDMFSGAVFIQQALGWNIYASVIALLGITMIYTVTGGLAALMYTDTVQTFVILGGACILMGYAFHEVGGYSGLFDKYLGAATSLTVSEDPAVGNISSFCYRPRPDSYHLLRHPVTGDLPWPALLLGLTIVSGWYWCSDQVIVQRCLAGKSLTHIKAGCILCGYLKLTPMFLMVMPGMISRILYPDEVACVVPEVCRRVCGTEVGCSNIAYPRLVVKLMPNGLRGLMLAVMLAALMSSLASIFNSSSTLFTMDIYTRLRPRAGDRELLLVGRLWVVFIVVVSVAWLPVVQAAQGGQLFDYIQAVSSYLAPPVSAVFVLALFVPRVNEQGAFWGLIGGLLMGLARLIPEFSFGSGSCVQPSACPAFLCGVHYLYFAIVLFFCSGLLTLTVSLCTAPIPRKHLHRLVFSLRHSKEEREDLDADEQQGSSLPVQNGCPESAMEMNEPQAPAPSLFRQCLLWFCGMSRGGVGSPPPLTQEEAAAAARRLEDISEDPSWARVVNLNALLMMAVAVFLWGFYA
Procedure: 6) The data was calculated by GraphPad Prism 5.0 software: log(inhibitor) vs. response—Variable slope to obtain the IC50 value of the test compound. The experimental results were shown in Table 3. • Biological activity experiment 2: SGLT2 glucose transport test 1. Experimental Purpose:
The effect of the compound on the glucose transport activity of the SGLT2 transporter was detected through measuring the amount of [^14C]-labeled glucose entering the cells with high expression of Human-SGLT2.
The cells stably expressing Human-SGLT2 used in the experiment were constructed by Shanghai WuXi AppTec. The SGLT2 cells were plated on a 96-well cell culture plate (Greiner) and cultured overnight at 5% CO2 at 37° C.
2.2. SGLT2 Glucose Transport Test
1) Experimental buffer: 10 mM 4-hydroxyethylpiperazine ethanesulfonic acid (HEPES), 1.2 mM magnesium chloride (MgCl2), 4.7 mM potassium chloride (KCl), 2.2 mM calcium chloride (CaCl2)) and 120 mM sodium chloride (NaCl).
2) Termination buffer: 10 mM 4-hydroxyethylpiperazine ethanesulfonic acid (HEPES), 1.2 mM magnesium chloride (MgCl2), 4.7 mM potassium chloride (KCl), 2.2 mM calcium chloride (CaCl2), 120 mM sodium chloride (NaCl) and 1 μM LX4211.
3) The compound was diluted with 100% dimethyl sulfoxide (DMSO) with a starting concentration of 10 μM and 8 points of 5-fold serial dilution.
4) 6 μM [^14C]-labeled methyl α-D-glucopyranoside was prepared with experimental buffer.
5) The cells were treated with 49 μL of experimental buffer, 1 μL of gradient diluted compound, and 50 μL of 6 μM [^14C]isotope-labeled sugar solution at 37° C. for 2 hours.
6) The liquid in the well was aspirated and the cells were rinsed 3 times with termination buffer.
7) The cells were lysed with 50 μL of 10% sodium hydroxide solution, the cell lysate was aspirated into the scintillation tube, and 2 mL of scintillation fluid was added.
8) An isotope detector (Tricarb) was used to read.
9) The data was calculated by GraphPad Prism 5.0 software: log(inhibitor) vs. response—Variable slope to obtain the IC50 value of the test compound. The experimental results were shown in Table 3. • Biological activity experiment 3: rhDPP4 inhibitor screening experiment 1.

[1] = target: recombinant human dipeptidyl peptidase 4 (rhDPP4) (Homo sapiens (Human), UniProt P27487); test: rhDPP4 inhibitor screening experiment; assay type: biochemical; conditions: Gly-Pro-aminoluciferin substrate, luminescence, room temperature 1 hour
recombinant human dipeptidyl peptidase 4 (rhDPP4), sequence (P27487 whole entry): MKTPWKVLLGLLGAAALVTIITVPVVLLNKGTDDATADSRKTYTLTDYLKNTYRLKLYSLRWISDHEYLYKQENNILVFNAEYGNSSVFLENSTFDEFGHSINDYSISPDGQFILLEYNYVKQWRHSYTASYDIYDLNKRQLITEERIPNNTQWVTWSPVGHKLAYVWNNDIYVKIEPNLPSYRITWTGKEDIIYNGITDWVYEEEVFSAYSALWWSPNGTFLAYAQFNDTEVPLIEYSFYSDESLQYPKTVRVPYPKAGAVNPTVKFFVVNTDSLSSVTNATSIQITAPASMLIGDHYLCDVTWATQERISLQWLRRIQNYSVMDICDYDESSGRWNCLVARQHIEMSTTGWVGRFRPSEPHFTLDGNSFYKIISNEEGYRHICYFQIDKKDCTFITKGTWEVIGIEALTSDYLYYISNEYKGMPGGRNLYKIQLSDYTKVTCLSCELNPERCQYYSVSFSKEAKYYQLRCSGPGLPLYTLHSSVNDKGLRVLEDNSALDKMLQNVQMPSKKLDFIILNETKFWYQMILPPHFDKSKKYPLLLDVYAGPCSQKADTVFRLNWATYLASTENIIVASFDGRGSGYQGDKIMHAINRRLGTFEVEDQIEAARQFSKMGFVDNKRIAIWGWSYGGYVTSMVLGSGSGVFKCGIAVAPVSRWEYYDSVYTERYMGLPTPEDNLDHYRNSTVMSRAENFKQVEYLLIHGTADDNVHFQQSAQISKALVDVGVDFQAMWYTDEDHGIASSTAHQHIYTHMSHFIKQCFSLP
Procedure: 9) The data was calculated by GraphPad Prism 5.0 software: log(inhibitor) vs. response—Variable slope to obtain the IC50 value of the test compound. The experimental results were shown in Table 3. • Biological activity experiment 3: rhDPP4 inhibitor screening experiment 1. Experimental Purpose:
The inhibitory activity of the compounds on recombinant human dipeptidyl peptidase 4 (rhDPP4) was evaluated by measuring the median inhibitory concentration (IC50) value of the compounds. In this experiment, rhDPP4 was used to catalyze a substrate to produce luciferin, and reacted with luciferase to produce light signals, wherein the substrate is the luminescent precursor glycine-proline-[…] (Gly-Pro-aminoluciferin). The intensity of the light signal is directly proportional to the enzyme activity.
1) 250 nL of gradient diluted compound (4 times dilution, 10 detection concentrations) was transferred to a 384-well plate (PerkingElmer-6007299) using a non-contact nano-upgraded acoustic pipetting system (ECHO). The concentration of dimethylsulfoxide (DMSO) concentration was 0.5% in the final reaction system. Blank control wells (containing DMSO, substrate and 10 mM of tris(hydroxymethyl)aminomethane hydrochlorid (Tris-HCl)) and positive control wells (containing DMSO, substrate and rhDPP4) were set.
2) The pre-packed frozen buffer containing luciferase was taken out and restored to room temperature, and then added with substrate to prepare a working solution with a substrate concentration of 20 μM. The rhDPP4 was prepared as a 0.2 ng/mL working solution with 10 mM Tris-HCl (pH8.0) aqueous solution.
3) 25 μL of working solution containing 20 μM substrate and 25 μL of working solution containing 0.2 ng/mL rhDPP4 were added to the 384-well plate with the compound added already. The plate was centrifuged at 1000 rpm for 30 s. The plate was sealed with aluminum foil sealing film and incubated at room temperature for 1 hour.
4) The light signal intensity was detected with a multi-function enzyme label detector EnVision. […]

Row | Compound | OGTT glucose level AUC0-2 hr (SD rat; then 50% glucose solution 2 g/kg, solvent control group 1079) [mmol/L/min] | Urine sugar level (SD rat; urine during 0-24 h, solvent control group 0.4) | Urine volume (SD rat; urine during 0-24 h, solvent control group 16.8) | IC50 (Human-SGLT1) [nM] | IC50 (Human-SGLT2) [nM] | IC50 [1] [nM]
1 | CCOc1ccc(Cc2cc([C@@H]3O[C@H](SC)[C@@H](O)[C@H](O)[C@H]3O)ccc2Cl)cc1 [Soagliflozin, Sotagliflozin] | 917 | 2913**** mg/200 g BW | 32.2**** mL/200 g BW | – | – | –
2 | CCc1ccc([C@@H]2O[C@H](SC)[C@@H](O)[C@H](O)[C@H]2O)cc1Cc1ccc(O[C@@H]2CCN([C@H]3CO[C@H](c4cc(F)ccc4F)[C@@H](N)C3)C2)c(C)c1 [WXD011] | – | – | – | 44.9 | 10.3 | –
3 | CCc1ccc([C@@H]2O[C@H](SC)[C@@H](O)[C@H](O)[C@H]2O)cc1Cc1ccc(O[C@@H]2CCN([C@H]3CO[C@H](c4cc(F)ccc4F)[C@@H](N)C3)C2)c(C)c1 [WXD010] | – | – | – | 144 | 21.2 | 164
4 | CS[C@H]1O[C@@H](c2ccc(C(C)C)c(Cc3ccc(O[C@@H]4CCN([C@H]5CO[C@H](c6cc(F)ccc6F)[C@@H](N)C5)C4)cc3)c2)[C@H](O)[C@@H](O)[C@@H]1O [WXD012] | – | – | – | 11.2 | 6.14 | 317
5 | CCc1ccc([C@@H]2O[C@H](SC)[C@@H](O)[C@H](O)[C@H]2O)cc1Cc1ccc(OC2CCN(C3CO[C@H](c4cc(F)ccc4F)[C@@H](N)C3)CC2)cc1 (some centres unmarked) [WXD007] | – | – | – | 3.37 | 1.44 | 511
